This note sets out measurements from patent US10472341B2, “Bicyclic tetrahydrothiazepine derivatives useful for the treatment of neoplastic and/or infectious diseases” (APEIRON BIOLOGICS AG, priority 2015, dated 2019).

Structures are written as SMILES. Read-outs that look alike come from different tables or passages of the source.

The subject of test [1] is aCD3/aCD28-stimulated human CD4+-T-cells. Put plainly: IL-2 production and activation markers in aCD3/aCD28 stimulated isolated human CD4+-T-cells. It is filed as cell-based. The settings on record: IL-2 production at 3 μM compound. In short, it runs like this: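 CD4+ T cells isolated from buffy-coat PBMCs by microbeads were plated in Xvivo medium (1.5*10^5 cells/well) and stimulated with anti-CD3/28 mAbs plus compound. IL-2 measured by ELISA in supernatants at 24 h or 48 h; CD25 and proliferation by flow cytometry, CD69 at 24 h. Activity classes based on IL-2 at 3 μM compound.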

Test [2] deals with aCD3/aCD28-stimulated human PBMCs. Put plainly: Cytokine production in aCD3/aCD28 stimulated human PBMCs. It is filed as cell-based. The conditions noted are these: PBMC, 18 h. In short, it runs like this:
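Compound effects measured in buffy-coat PBMCs activated 18 h at 37° C by 1 μg/mL each of soluble anti-CD3 (OKT3) and anti-CD28 (28.2), 1e6 cells/mL. Cytokines in harvested supernatants read by MSD or HTRF.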

The mark [3] stands for this setting: enhancement of IFN-γ production, read-out: Activity Class IFN-γ.
[4] abbreviates: enhancement of IL-2 production, read-out: Activity Class IL-2.

Regarding `CCCCNC(=O)c1ccc2c(c1)N(Cc1ccc(C(C)(C)C)cc1)C(=O)[C@@H](N)CS2.Cl` [Example 2, (3R)-3-amino-N-butyl-5-[(4-tert-butylphenyl)methyl]-4-oxo-2,3,4,5-tetrahydro-1,5-benzothiazepine-7-carboxamide hydrochloride], the “Activity Class CD4+” value in test [1] is recorded as “B (IL-2 production at 3 μM compound concentration between 2-10 ng/mL)”. For the same compound, the EC50 is below 1.58 µM in test [2] (setting [3]) and 1.58 to 5.01 µM in test [2] (setting [4]).
On to `CCCCNC(=O)c1cc2c(cc1F)SC[C@H](N)C(=O)N2Cc1ccc(Cl)c(F)c1` [Example 57, (3R)-3-amino-N-butyl-5-[(4-chloro-3-fluorophenyl)methyl]-8-fluoro-4-oxo-2,3,4,5-tetrahydro-1,5-benzothiazepine-7-carboxamide], for which the “Activity Class CD4+” value in test [1] is “C (IL-2 production at 3 μM compound concentration between 2-fold increase as compared to mean IL-2 production of stimulated cells in the absence of compounds and <2 ng/mL)”. Further, the EC50 in test [2] (setting [3]) is below 1.58 µM; in test [2] (setting [4]) it was 1.58 to 5.01 µM.
With `Cl.Cl.N[C@H]1CSc2ccc(C(=O)Nc3cccnc3)cc2N(Cc2ccc(OC(F)(F)F)cc2)C1=O` [Example 25, (3R)-3-amino-4-oxo-N-(pyridin-3-yl)-5-{[4-(trifluoromethoxy)phenyl]methyl}-2,3,4,5-tetrahydro-1,5-benzothiazepine-7-carboxamide dihydrochloride], in test [1], the “Activity Class CD4+” value is “C (IL-2 production at 3 μM compound concentration between 2-fold increase as compared to mean IL-2 production of stimulated cells in the absence of compounds and <2 ng/mL)”. Also, the EC50 in test [2] (setting [3]) is above 5.01 µM; in test [2] (setting [4]) it was 1.58 to 5.01 µM.
For the compound `CC(C)CONC(=O)c1cc2c(cc1F)SC[C@H](N)C(=O)N2Cc1ccc(Cl)cc1.Cl` [Example 59, (3R)-3-amino-5-[(4-chlorophenyl)methyl]-8-fluoro-N-(2-methylpropoxy)-4-oxo-2,3,4,5-tetrahydro-1,5-benzothiazepine-7-carboxamide hydrochloride], the “Activity Class CD4+” value in test [1] is “C (IL-2 production at 3 μM compound concentration between 2-fold increase as compared to mean IL-2 production of stimulated cells in the absence of compounds and <2 ng/mL)”. The EC50 in test [2] (setting [3]) and in test [2] (setting [4]) was 1.58 to 5.01 µM in each case.
For `Cl.N[C@H]1CS(=O)(=O)c2cc(F)c(C(=O)NC3CCC3)cc2N(Cc2ccc(Cl)cc2)C1=O` [Example 86, (3R)-3-amino-5-[(4-chlorophenyl)methyl]-N-cyclobutyl-8-fluoro-1,1,4-trioxo-2,3,4,5-tetrahydro-1λ^6,5-benzothiazepine-7-carboxamide hydrochloride], the “Activity Class CD4+” value in test [1] was “B (IL-2 production at 3 μM compound concentration between 2-10 ng/mL)”. Besides, the EC50 in test [2] (setting [3]) was below 1.58 µM; in test [2] (setting [4]), 1.58 to 5.01 µM.
In the same order, the values of `C=CCCNC(=O)c1ccc2c(c1)N(Cc1ccc(Cl)cc1)C(=O)[C@@H](N)CS2(=O)=O.Cl` [Example 84, (3R)-3-amino-N-(but-3-en-1-yl)-5-[(4-chlorophenyl)methyl]-1,1,4-trioxo-2,3,4,5-tetrahydro-1λ^6,5-benzothiazepine-7-carboxamide hydrochloride] are “B (IL-2 production at 3 μM compound concentration between 2-10 ng/mL)”, below 1.58 µM and 1.58 to 5.01 µM.
The matching figures for `Cl.N[C@H]1CSc2cc(F)c(C(=O)NCC3CCOCC3)cc2N(Cc2ccc(Cl)cc2F)C1=O` [Example 55, (3R)-3-amino-5-[(4-chloro-2-fluorophenyl)methyl]-8-fluoro-N-(oxan-4-ylmethyl)-4-oxo-2,3,4,5-tetrahydro-1,5-benzothiazepine-7-carboxamide hydrochloride]: “B (IL-2 production at 3 μM compound concentration between 2-10 ng/mL)”, 1.58 to 5.01 µM and 1.58 to 5.01 µM.
`CC(C)(C)C(=O)NCCCNC(=O)c1ccc2c(c1)N(Cc1ccc(OC(F)(F)F)cc1)C(=O)[C@@H](N)CS2.Cl` [Example 12, N-(3-{[(3R)-3-amino-4-oxo-5-{[4-(trifluoromethoxy)phenyl]methyl}-2,3,4,5-tetrahydro-1,5-benzothiazepin-7-yl]formamido}propyl)-2,2-dimethylpropanamide hydrochloride]: the “Activity Class CD4+” value in test [1] was “C (IL-2 production at 3 μM compound concentration between 2-fold increase as compared to mean IL-2 production of stimulated cells in the absence of compounds and <2 ng/mL)”. Moreover, the EC50 in test [2] (setting [3]) and in test [2] (setting [4]) was above 5.01 µM each time.
As to `Cl.N[C@H]1CSc2ccc(C(=O)NCc3ccc(N4CCOCC4)cc3)cc2N(Cc2ccc(OC(F)(F)F)cc2)C1=O` [Example 11, (3R)-3-amino-N-{[4-(morpholin-4-yl)phenyl]methyl}-4-oxo-5-{[4-(trifluoromethoxy)-phenyl]methyl}-2,3,4,5-tetrahydro-1,5-benzothiazepine-7-carboxamide hydrochloride], in test [1], the “Activity Class CD4+” value was “C (IL-2 production at 3 μM compound concentration between 2-fold increase as compared to mean IL-2 production of stimulated cells in the absence of compounds and <2 ng/mL)”. The EC50 in test [2] (setting [3]) and in test [2] (setting [4]) was above 5.01 µM in each case.
In the case of `C[C@@H](NC(=O)c1ccc2c(c1)N(Cc1ccc(Cl)cc1)C(=O)[C@@H](N)CS2)c1ccc(F)cc1.Cl` [Example 38, (3R)-3-amino-5-[(4-chlorophenyl)methyl]-N-[(1R)-1-(4-fluorophenyl)ethyl]-4-oxo-2,3,4,5-tetrahydro-1,5-benzothiazepine-7-carboxamide hydrochloride], the “Activity Class CD4+” value in test [1] is “C (IL-2 production at 3 μM compound concentration between 2-fold increase as compared to mean IL-2 production of stimulated cells in the absence of compounds and <2 ng/mL)”. The EC50 in test [2] (setting [3]) and in test [2] (setting [4]) was 1.58 to 5.01 µM throughout.
Regarding `Cl.N[C@H]1CS(=O)(=O)c2cc(F)c(C(=O)NCCC(F)(F)F)cc2N(Cc2ccc(Cl)cc2)C1=O` [Example 93, (3R)-3-amino-5-[(4-chlorophenyl)methyl]-8-fluoro-1,1,4-trioxo-N-(3,3,3-trifluoro-propyl)-2,3,4,5-tetrahydro-1λ^6,5-benzothiazepine-7-carboxamide hydrochloride], the “Activity Class CD4+” value in test [1] is given as “A (IL-2 production at 3 μM compound concentration >10 ng/mL)”. The EC50 in test [2] (setting [3]) is 1.58 to 5.01 µM; in test [2] (setting [4]), below 1.58 µM.
The matching figures for `CCCCNC(=O)c1cc2c(cc1F)SC[C@H](N)C(=O)N2Cc1ccc(OC(F)(F)F)cc1.Cl` [Example 5, (3R)-3-amino-N-butyl-8-fluoro-4-oxo-5-{[4-(trifluoromethoxy)phenyl]methyl}-2,3,4,5-tetrahydro-1,5-benzothiazepine-7-carboxamide hydrochloride]: “B (IL-2 production at 3 μM compound concentration between 2-10 ng/mL)”, 1.58 to 5.01 µM and above 5.01 µM.
In the same order, the values of `Cl.N[C@H]1CSc2ccc(C(=O)NCC3CCOCC3)cc2N(Cc2ccc(OC(F)(F)F)cc2)C1=O` [Example 30, (3R)-3-amino-N-(oxan-4-ylmethyl)-4-oxo-5-{[4-(trifluoromethoxy)phenyl]methyl}-2,3,4,5-tetrahydro-1,5-benzothiazepine-7-carboxamide hydrochloride] are “B (IL-2 production at 3 μM compound concentration between 2-10 ng/mL)”, above 5.01 µM and 1.58 to 5.01 µM.
Regarding `CC(C)CNNC(=O)c1cc2c(cc1F)SC[C@H](N)C(=O)N2Cc1ccc(Cl)cc1.Cl` [Example 60, (3R)-3-amino-5-[(4-chlorophenyl)methyl]-8-fluoro-N′-(2-methylpropyl)-4-oxo-2,3,4,5-tetrahydro-1,5-benzothiazepine-7-carbohydrazide hydrochloride], in test [1], the “Activity Class CD4+” value was “C (IL-2 production at 3 μM compound concentration between 2-fold increase as compared to mean IL-2 production of stimulated cells in the absence of compounds and <2 ng/mL)”. The EC50 is below 1.58 µM in test [2] (setting [3]) and 1.58 to 5.01 µM in test [2] (setting [4]).
As to `CC(C)NC(=O)c1ccc2c(c1)N(Cc1ccc(Cl)c(Cl)c1)C(=O)[C@@H](N)CS2(=O)=O.Cl` [Example 88, (3R)-3-amino-5-[(3,4-dichlorophenyl)methyl]-1,1,4-trioxo-N-(propan-2-yl)-2,3,4,5-tetrahydro-1λ^6,5-benzothiazepine-7-carboxamide hydrochloride], the “Activity Class CD4+” value in test [1] was “C (IL-2 production at 3 μM compound concentration between 2-fold increase as compared to mean IL-2 production of stimulated cells in the absence of compounds and <2 ng/mL)”. Moreover, the figures for the EC50 in test [2] (setting [3]) and in test [2] (setting [4]) were 1.58 to 5.01 µM and above 5.01 µM, respectively.
Regarding `CC1(NC(=O)c2cc3c(cc2F)S(=O)(=O)C[C@H](N)C(=O)N3Cc2ccc(Cl)cc2)CC1.Cl` [Example 99, (3R)-3-amino-5-[(4-chlorophenyl)methyl]-8-fluoro-N-(1-methylcyclopropyl)-1,1,4-trioxo-2,3,4,5-tetrahydro-1λ^6,5-benzothiazepine-7-carboxamide hydrochloride], in test [1], the “Activity Class CD4+” value is on record as “B (IL-2 production at 3 μM compound concentration between 2-10 ng/mL)”. Besides, the EC50 in test [2] (setting [3]) and in test [2] (setting [4]) was 1.58 to 5.01 µM throughout.
For `C=CCCNC(=O)c1ccc2c(c1)N(Cc1ccc(Cl)cc1)C(=O)[C@@H](N)CS2.Cl` [Example 64, (3R)-3-amino-N-(but-3-en-1-yl)-5-[(4-chlorophenyl)methyl]-4-oxo-2,3,4,5-tetrahydro-1,5-benzothiazepine-7-carboxamide hydrochloride], the “Activity Class CD4+” value in test [1] was “C (IL-2 production at 3 μM compound concentration between 2-fold increase as compared to mean IL-2 production of stimulated cells in the absence of compounds and <2 ng/mL)”. In addition, the EC50 in test [2] (setting [3]) is 1.58 to 5.01 µM; in test [2] (setting [4]), above 5.01 µM.
